In US8697140B2, “Virucidal disinfectant” (priority 2005, dated 2014):
Where “and” joins values, the source holds several entries; their conditions need not be identical. Equal values may be shown once.

Columns and labels:
poliovirus = conditions: cited from earlier work
[1] = test system: poliovirus (polio vaccination strain type I, strain LSc-2ab)

Compound	Effectiveness against poliovirus (poliovirus)	Reduction of poliovirus titer [1]
O=P(O)(O)O [phosphoric acid]	ineffective	–
C=O [formaldehyde solution, formaldehyde]	–	1.25 log10 steps and 2.13 log10 steps
